Measurements reported in US12508280B2, “Formulations for improving gut health” (DSM IP ASSETS B.V., priority 2018, dated 2025).

Key:
Format in all cases: cell-based, human
[1] = system: colonic microbiota (fecal inoculum of two healthy adults); experiment: Microbiome diversity, alpha and beta (second set)
Description: (§1) In a second set of in vitro experiments, at the start of the short-term colonic incubations, the test ingredients were added to nutritional medium containing basal nutrients present in the colon (e.g. host-derived glycans such as mucin). Three doses were tested per product. The nutritional medium used for this particular project was again supplemented with NaCl, MgSO4, CaCl2, hemin and bile salts, and with carbon sources glucose, starch and cellobiose. A blank, containing the same nutritional medium as that used for the product incubations, but without product addition, was included for each donor. In doing so, an assessment can be made of the background activity of the bacterial community, which results from fermentation of compounds in the nutritional medium. As a source of the colonic microbiota a fecal inoculum of two healthy adults was added. Incubations were performed for 48 h at 37′C, under shaking (90 rpm) and anaerobic conditions and protected from light. […] For the second set of in vitro experiments, two techniques were combined according to Vandeputte et al.

[2] = system: fecal inoculum of two healthy adults; experiment: Short-term colonic incubations, SCFA production (second set); settings: 48 h fermentation
Description: In a second set of in vitro experiments, at the start of the short-term colonic incubations, the test ingredients were added to nutritional medium containing basal nutrients present in the colon (e.g. host-derived glycans such as mucin). Three doses were tested per product. The nutritional medium used for this particular project was again supplemented with NaCl, MgSO4, CaCl2, hemin and bile salts, and with carbon sources glucose, starch and cellobiose. A blank, containing the same nutritional medium as that used for the product incubations, but without product addition, was included for each donor. In doing so, an assessment can be made of the background activity of the bacterial community, which results from fermentation of compounds in the nutritional medium. As a source of the colonic microbiota a fecal inoculum of two healthy adults was added. Incubations were performed for 48 h at 37'C, under shaking (90 rpm) and anaerobic conditions and protected from light. […] Each compound was tested in three different concentrations; an overview is given in Table 2, below: Short chain fatty acids (SCFA) are an assessment of the microbial carbohydrate metabolism (acetate, propionate and butyrate) or protein metabolism (branched SCFA) and can be compared to typical fermentation patterns for normal GI microbiota. Samples for SCFA analysis were analyzed after 0, 6, 24 and 48 h of incubation for both set of in vitro experiments, above. SCFA were extracted from the samples with diethyl ether, after the addition of 2-methyl hexanoic acid as an internal standard. […], Belgium), a flame ionization detector and a split injector. The injection volume was […] and the temperature profile was set from 110 to 160° C., with a temperature increase of 6° C. min-1. […] The production of unbranched and branched SCFA was calculated by summing the molar concentrations of acetate, propionate, butyrate, valerate and caproate, and summing isobutyrate, isovalerate and isocaproate molar concentrations, respectively. The total SCFA production was defined as the sum of unbranched and branched SCFA.

[3] = system: colonic microbiota (fecal inoculum of two healthy adults); experiment: 16S-targeted Illumina sequencing with flow cytometry, taxa abundance (second set); settings: 24 h fermentation
Description: as §1

Calcium D-Pantothenate [vitamin B5]
alpha-diversity (Shannon diversity index) ([1]; 0.2× dose, donor D): increases alpha-diversity | beta-diversity (Bray-Curtis distance to control) ([1]; 5× dose, both donors): increases beta-diversity | alpha-diversity (Shannon diversity index) ([1]; 5× dose, donor D): increases alpha-diversity | propionate production ([2]; 0.2× dose, donor C): increase propionate production | branched SCFA production ([2]; 5× dose, both donors): decrease branched SCFA production | Akkermansiaceae relative abundance ([3]; 0.2× dose, donor D): increase Akkermansiaceae relative abundance | Faecalibacterium prausnitzii relative abundance ([3]; 0.2× dose, donor D): increase Faecalibacterium prausnitzii relative abundance | Veillonellaceae relative abundance ([3]; 0.2× dose, donor D): increase Veillonellaceae relative abundance | Erysipelotrichaceae relative abundance ([3]; 1× dose, donor D): increase Erysipelotrichaceae relative abundance | Faecalibacterium prausnitzii relative abundance ([3]; 1× dose, donor D): increase Faecalibacterium prausnitzii relative abundance | Bifidobacteriaceae relative abundance ([3]; 5× dose, both donors): increase Bifidobacteriaceae relative abundance | Desulfovibrionaceae relative abundance ([3]; 5× dose, donor C): decrease Desulfovibrionaceae relative abundance | Faecalibacterium prausnitzii relative abundance ([3]; 5× dose, donor D): increase Faecalibacterium prausnitzii relative abundance

CC1=C(/C=C/C(C)=C/C=C/C(C)=C/C=C/C=C(C)/C=C/C=C(C)/C=C/C2=C(C)CCCC2(C)C)C(C)(C)CCC1 [β-carotene]
beta-diversity (Bray-Curtis distance to control) ([1]; 0.2× dose, donor D): increases beta-diversity | beta-diversity (Bray-Curtis distance to control) ([1]; 1× dose, both donors): increases beta-diversity | beta-diversity (Bray-Curtis distance to control) ([1]; 1× dose, donor D): increases beta-diversity | beta-diversity (Bray-Curtis distance to control) ([1]; 5× dose, both donors): increases beta-diversity | butyrate production ([2]; 0.2× dose, donor C): increase butyrate production | acetate production ([2]; 1× dose, both donors): increase acetate production | butyrate production ([2]; 1× dose, both donors): increase butyrate production | total SCFA production ([2]; 1× dose, both donors): increase total SCFA production | propionate production ([2]; 1× dose, donor C): increase propionate production | acetate production ([2]; 5× dose, both donors): increase acetate production | total SCFA production ([2]; 5× dose, both donors): increase total SCFA production | propionate production ([2]; 5× dose, donor C): increase propionate production | Bifidobacteriaceae relative abundance ([3]; 1× dose, both donors): increase Bifidobacteriaceae relative abundance | Clostridiaceae relative abundance ([3]; 1× dose, donor C): increase Clostridiaceae relative abundance | Prevotellaceae relative abundance ([3]; 1× dose, donor C): increase Prevotellaceae relative abundance | Coriobacteriaceae relative abundance ([3]; 1× dose, donor D): increase Coriobacteriaceae relative abundance | Faecalibacterium prausnitzii relative abundance ([3]; 1× dose, donor D): increase Faecalibacterium prausnitzii relative abundance | Veillonellaceae relative abundance ([3]; 1× dose, donor D): increase Veillonellaceae relative abundance | Akkermansiaceae relative abundance ([3]; 5× dose, both donors): increase Akkermansiaceae relative abundance | Bifidobacteriaceae relative abundance ([3]; 5× dose, both donors): increase Bifidobacteriaceae relative abundance | Desulfovibrionaceae relative abundance ([3]; 5× dose, both donors): decrease Desulfovibrionaceae relative abundance | Eggerthellaceae relative abundance ([3]; 5× dose, both donors): increase Eggerthellaceae relative abundance | Barnesiellaceae relative abundance ([3]; 5× dose, donor D): increase Barnesiellaceae relative abundance | Coriobacteriaceae relative abundance ([3]; 5× dose, donor D): increase Coriobacteriaceae relative abundance | Faecalibacterium prausnitzii relative abundance ([3]; 5× dose, donor D): increase Faecalibacterium prausnitzii relative abundance | Veillonellaceae relative abundance ([3]; 5× dose, donor D): increase Veillonellaceae relative abundance
